# Laboratory results reported in patent US11266147B2, “Fungicidal oxadiazoles” (Bayer Aktiengesellschaft, priority 2017, dated 2022).
# Assay: LogP by HPLC on reversed phase columns (EEC directive 79/831 Annex V.A8)
# Assay type: physicochemical
# Settings: method [a]: LC-UV, acidic range, 0.1% formic acid in water and acetonitrile, linear gradient 10% to 95% acetonitrile
# Method: [table] If more than one LogP value is available within the same method, all the values are given and separated by “+”. Calibration was done with straight-chain alkan2-ones (with 3 to 16 carbon atoms) with known LogP values (measurement of LogP values using retention times with linear interpolation between successive alkanones). Lambda-max-values were determined using UV-spectra from 200 nm to 400 nm and the peak values of the chromatographic signals.
row,Structure (SMILES),LogP
1,Cc1ccnc(Nc2ccc(-c3noc(C(F)(F)F)n3)cc2)n1 [Compound I-06],3.83^[a]
2,FC(F)(F)c1nc(-c2cnc(NC3CCCC3)nc2)no1 [Compound I-08],3.83^[a]
3,FC(F)(Cl)c1nc(-c2cnc(NC3CC3C(F)(F)F)nc2)no1 (stereo not shown) [Compound I-09],3.65^[a]
4,FC(F)(F)c1nc(-c2cnc(NC3CCOC3)nc2)no1 (stereo not shown) [Compound I-10],2.35^[a]
5,FC(F)(Cl)c1nc(-c2cnc(NC3CCOC3)nc2)no1 (stereo not shown) [Compound I-11],2.55^[a]
6,CN(c1ncc(-c2noc(C(F)(F)Cl)n2)cn1)C1CCCC1 [Compound I-12],5.42^[a]
7,CC(=O)N1CCC(Nc2ncc(-c3noc(C(F)(F)F)n3)cn2)CC1 [Compound I-13],2.17^[a]
8,CC1(Nc2ncc(-c3noc(C(F)(F)Cl)n3)cn2)CC1 [Compound I-14],3.25^[a]
9,FC(F)(Cl)c1nc(-c2cnc(NC3CCOCC3)nc2)no1 [Compound I-15],2.76^[a]
10,FC(F)(F)c1nc(-c2cnc(NC3CCOCC3)nc2)no1 [Compound I-16],2.57^[a]
11,FC(F)(F)c1nc(-c2cnc(NC3(c4ccccc4)CC3)nc2)no1 [Compound I-17],3.74^[a]
12,FC1(F)CC(Nc2ncc(-c3noc(C(F)(F)Cl)n3)cn2)C1 [Compound I-18],3.48^[a]
13,FC(F)(Cl)c1nc(-c2cnc(NC3Cc4ccccc4C3)nc2)no1 [Compound I-19],4.49^[a]
14,CC(=O)N1CCC(Nc2ncc(-c3noc(C(F)(F)Cl)n3)cn2)CC1 [Compound I-20],2.32^[a]
15,FC(F)(F)c1nc(-c2cnc(NC3CC3C(F)(F)F)nc2)no1 (stereo not shown) [Compound I-21],3.46^[a]
16,O=S1(=O)CCC(Nc2ncc(-c3noc(C(F)(F)F)n3)cn2)C1 (stereo not shown) [Compound I-22],2.15^[a]
17,FC(F)(F)c1nc(-c2cnc(NC3(c4ccccn4)CCC3)nc2)no1 [Compound I-23],1.96^[a]
18,FC(F)(Cl)c1nc(-c2cnc(NC3(c4ccccn4)CCC3)nc2)no1 [Compound I-24],2.13^[a]
19,CC1(Nc2ncc(-c3noc(C(F)(F)F)n3)cn2)CC1 [Compound I-25],3.04^[a]
20,FC(F)(F)c1nc(-c2cnc(NC3Cc4ccccc4C3)nc2)no1 [Compound I-26],4.27^[a]
21,FC(F)(Cl)c1nc(-c2cnc(NC3CC3)nc2)no1 [Compound I-27],2.76^[a]

row,Structure (SMILES),LogP
1,FC(F)(Cl)c1nc(-c2cnc(NC3CCCC3)nc2)no1 [Compound I-28],4.08^[a]
2,FC(F)(Cl)c1nc(-c2cnc(NC3(c4ccccc4)CC3)nc2)no1 [Compound I-29],3.94^[a]
3,O=S1(=O)CCC(Nc2ncc(-c3noc(C(F)(F)Cl)n3)cn2)C1 (stereo not shown) [Compound I-30],2.32^[a]
4,FC(F)(F)c1nc(-c2cnc(NC3CC3)nc2)no1 [Compound I-31],2.57^[a]
5,FC1(F)CC(Nc2ncc(-c3noc(C(F)(F)F)n3)cn2)C1 [Compound I-32],3.29^[a]
6,FC(F)(Cl)c1nc(-c2cnc(NC3=NCCS3)nc2)no1 [Compound I-33],1.26^[a]
7,FC(F)(F)c1nc(-c2cnc(NC3=NCCS3)nc2)no1 [Compound I-34],1.08^[a]
8,Cc1cccc(Nc2ccc(-c3noc(C(F)(F)F)n3)cc2)c1 [Compound I-35],4.93^[a]
9,FC(F)(F)c1cccc(Nc2ccc(-c3noc(C(F)(F)F)n3)cc2)c1 [Compound I-36],5.08^[a]
10,FC(F)(F)c1nc(-c2ccc(Nc3ccccc3)cc2)no1 [Compound I-37],4.56^[a]
11,FC(F)(F)c1nc(-c2ccc(Nc3ccc(Cl)cc3)cc2)no1 [Compound I-38],5.00^[a]
12,FC(F)(F)Oc1ccccc1Nc1ccc(-c2noc(C(F)(F)F)n2)cc1 [Compound I-39],5.11^[a]
13,Cc1ccnc(Nc2ccc(-c3noc(C(F)(F)Cl)n3)cc2)n1 [Compound I-40],2.98^[a]
14,Fc1ccccc1Nc1ncc(-c2noc(C(F)(F)Cl)n2)cn1 [Compound I-41],3.94^[a]
15,Fc1ccc(Nc2ncc(-c3noc(C(F)(F)F)n3)cn2)c(F)c1 [Compound I-42],3.70^[a]
16,FC(F)Oc1ccc(Nc2ncc(-c3noc(C(F)(F)F)n3)cn2)cc1 [Compound I-43],3.92^[a]
17,Fc1cccc(Nc2ncc(-c3noc(C(F)(F)F)n3)cn2)c1 [Compound I-44],3.94^[a]
18,COc1cccc(Nc2ncc(-c3noc(C(F)(F)F)n3)cn2)c1 [Compound I-45],3.76^[a]
19,FC(F)(F)c1nc(-c2cnc(Nc3cccc(Cl)c3)nc2)no1 [Compound I-46],4.34^[a]
20,FC(F)(F)c1nc(-c2cnc(Nc3ccccc3Cl)nc2)no1 [Compound I-47],4.20^[a]
21,N#CCc1ccc(Nc2ncc(-c3noc(C(F)(F)F)n3)cn2)cc1 [Compound I-48],3.27^[a]

row,Structure (SMILES),LogP
1,FC(F)(F)c1nc(-c2cnc(Nc3ccc4c(c3)OCO4)nc2)no1 [Compound I-49],3.50^[a]
2,CC(=O)Nc1cccc(Nc2ncc(-c3noc(C(F)(F)F)n3)cn2)c1 [Compound I-50],2.59^[a]
3,N#Cc1cccc(Nc2ncc(-c3noc(C(F)(F)F)n3)cn2)c1 [Compound I-51],3.52^[a]
4,COc1cc(Nc2ncc(-c3noc(C(F)(F)F)n3)cn2)ccc1C [Compound I-52],4.30^[a]
5,FC(F)(F)c1cccc(Nc2ncc(-c3noc(C(F)(F)F)n3)cn2)c1 [Compound I-53],4.46^[a]
6,COc1ccccc1Nc1ncc(-c2noc(C(F)(F)F)n2)cn1 [Compound I-54],4.18^[a]
7,FC(F)(F)c1nc(-c2cnc(Nc3ccc(S(F)(F)(F)(F)F)cc3)nc2)no1 [Compound I-55],4.80^[a]
8,Cc1cccc(Nc2ncc(-c3noc(C(F)(F)F)n3)cn2)c1 [Compound I-56],4.13^[a]
9,FC(F)(F)c1nc(-c2cnc(Nc3ccon3)nc2)no1 [Compound I-57],2.50^[a]
10,FC(F)(F)c1nc(-c2cnc(Nc3ccsc3)nc2)no1 [Compound I-58],3.70^[a]
11,COc1ccc(Nc2ncc(-c3noc(C(F)(F)F)n3)cn2)cc1 [Compound I-59],3.57^[a]
12,FC(F)(F)c1nc(-c2cnc(Nc3cccc4c3CCC4)nc2)no1 [Compound I-60],4.44^[a]
13,FC(F)(F)c1nc(-c2cnc(Nc3ccccc3)nc2)no1 [Compound I-61],3.74^[a]
14,FC(F)(F)c1nc(-c2cnc(Nc3ccc(Cl)cc3)nc2)no1 [Compound I-62],4.34^[a]
15,Fc1ccc(Nc2ncc(-c3noc(C(F)(F)F)n3)cn2)cc1 [Compound I-63],3.79^[a]
16,FC(F)(Cl)c1nc(-c2cnc(Nc3ccon3)nc2)no1 [Compound I-64],2.71^[a]
17,FC(F)(Cl)c1nc(-c2cnc(Nc3ccsc3)nc2)no1 [Compound I-65],3.92^[a]
18,COc1ccc(Nc2ncc(-c3noc(C(F)(F)Cl)n3)cn2)cc1 [Compound I-66],3.79^[a]
19,FC(F)(Cl)c1nc(-c2cnc(Nc3ccc(Cl)cc3)nc2)no1 [Compound I-67],4.56^[a]
20,Cc1cccc(Nc2ncc(-c3noc(C(F)(F)Cl)n3)cn2)c1 [Compound I-68],4.34^[a]
21,FC(F)Oc1ccc(Nc2ncc(-c3noc(C(F)(F)Cl)n3)cn2)cc1 [Compound I-69],4.11^[a]

row,Structure (SMILES),LogP
1,FC(F)(Cl)c1nc(-c2cnc(Nc3ccc4c(c3)OCO4)nc2)no1 [Compound I-70],3.72^[a]
2,FC(F)(Cl)c1nc(-c2cnc(Nc3ccccc3)nc2)no1 [Compound I-71],3.96^[a]
3,Fc1ccc(Nc2ncc(-c3noc(C(F)(F)Cl)n3)cn2)cc1 [Compound I-72],3.99^[a]
4,FC(F)(Cl)c1nc(-c2cnc(Nc3cccc4c3CCC4)nc2)no1 [Compound I-73],4.69^[a]
5,CC(=O)Nc1cccc(Nc2ncc(-c3noc(C(F)(F)Cl)n3)cn2)c1 [Compound I-74],2.75^[a]
6,Fc1ccc(Nc2ncc(-c3noc(C(F)(F)Cl)n3)cn2)c(F)c1 [Compound I-75],3.92^[a]
7,Fc1cccc(Nc2ncc(-c3noc(C(F)(F)Cl)n3)cn2)c1 [Compound I-76],4.18^[a]
8,FC(F)(Cl)c1nc(-c2cnc(Nc3ccccc3Cl)nc2)no1 [Compound I-77],4.46^[a]
9,COc1ccccc1Nc1ncc(-c2noc(C(F)(F)Cl)n2)cn1 [Compound I-78],4.41^[a]
10,FC(F)(Cl)c1nc(-c2cnc(Nc3cccc(Cl)c3)nc2)no1 [Compound I-79],4.56^[a]
11,COc1cccc(Nc2ncc(-c3noc(C(F)(F)Cl)n3)cn2)c1 [Compound I-80],3.96^[a]
12,COc1cc(Nc2ncc(-c3noc(C(F)(F)Cl)n3)cn2)ccc1C [Compound I-81],4.51^[a]
13,N#Cc1cccc(Nc2ncc(-c3noc(C(F)(F)Cl)n3)cn2)c1 [Compound I-82],3.72^[a]
14,FC(F)(Cl)c1nc(-c2cnc(Nc3ccc(S(F)(F)(F)(F)F)cc3)nc2)no1 [Compound I-83],5.00^[a]
15,N#CCc1ccc(Nc2ncc(-c3noc(C(F)(F)Cl)n3)cn2)cc1 [Compound I-84],3.46^[a]
16,FC(F)(F)c1cccc(Nc2ncc(-c3noc(C(F)(F)Cl)n3)cn2)c1 [Compound I-85],4.69^[a]
17,FC(F)(F)c1nc(-c2cnc(Nc3nc4c(s3)CCC4)nc2)no1 [Compound I-86],3.81^[a]
18,FC(F)(F)c1nc(-c2cnc(Nc3ccc4ncccc4c3)nc2)no1 [Compound I-87],1.98^[a]

# Same assay, conditions: reversed phase HPLC column; method [a]: LC-UV, acidic range, 0.1% formic acid in water and acetonitrile, linear gradient 10% to 95% acetonitrile
row,chromatographic logP,Structure (SMILES)
1,3.23,"CC(=O)N(c1ncc(-c2noc(C(F)(F)F)n2)cn1)c1ccccc1F [Compound I-07, N-(2-fluorophenyl)-N-{5-[5-(trifluoromethyl)-1,2,4-oxadiazol-3-yl]pyrimidin-2-yl}acetamide]"
